# Key:
# [1] = Test of solubility of crystal form A and its salts in four medias (HPLC, 24 hr); conditions: for Solubility (ug/mL)_24 hr: 24 hr stirring; for pH (24 hr): supernatant
# Description: (§1) Preparation of Control Solution (Crystal Form a as Control Sample)
# (§2) Crystal form A was accurately weighed and added into a sample vial. 10 mL of acetonitrile was added, and subject to ultrasonic treatment for 5 min. The mixture was cooled to room temperature, and mixed homogeneously. Two aliquots were formulated in parallel, and labelled as STD-1 and STD-2, respectively.
# Preparation of Linear Solution
# (§3) The control solution STD-1 was gradually diluted 1×, 5×, 10×, 100×, and 1000×, and labelled as the linear solutions L1, L2, L3, L4, L5.
# (§4) Test of Solubility of Crystal Form a and its Salts
# (§5) The crystal form A and its salts were tested for their solubility in medias at 4 different pH values. About 10 mg of free base (10.8 mg of hydrochloride, 12.1 mg of methane sulfonate) was added into a glass vial. Four aliquots were weighed, 5.0 mL of individual media (water, SGF, FaSSIF, FeSSIF*) was added to each aliquot, respectively. The mixture was mixed homogeneously to for a suspension. A magnet was placed into the suspension, which was placed on a magnetic stirred for stirring. After 24 hours of stirred, a sample was taken and centrifugalized. The supernatant was detected by HPLC for its concentration and pH value.
# [2] = physchem; conditions: FeSSIF, pH 4.89, fessif, thermodynamic from solid
# Description: as §1, §2
# Preparation of Linear Solution
# as §3, §4, §5
# [3] = Test of solid stability of crystal forms F, K and L; format: physicochemical
# Description: Test of Solid Stability of Crystal Form F (Hydrochloride), Crystal Form K (Methane Sulfonate) and Crystal Form L (Methane Sulfonate) […] About 5 mg of each crystal form was accurately weighed and placed in a glass vial. Two aliquots were taken as the sample for test under each condition and at each time point. One aliquot was taken as the sample for XRPD test under each condition and at each time point. The vials containing sample were sealed with aluminum foil, and the foil was pierced to form some holes thereon. Then, the samples were placed in constant temperature & humidity chambers under the conditions of 60° C./92.5% RH and 40° C./75% RH. [table] 2. Analysis of Sample of Solid Stability At the tested time point, the sample was taken out, capped, and stood to room temperature. […] Diluent: an aqueous solution of methanol-0.04% TFA (90:10, v:v) Mobile phase A: 0.04% aqueous solution of TFA Mobile phase B: Acetonitrile as mobile phase B. Crystal form F (hydrochloride): To each sample was added 18 mL of the diluent (to the sample at Day 0 was added 20 mL of the diluent). The mixture was subject to ultrasonic treatment for 2 min, and mixed homogeneously for use as the sample solution. Crystal forms K and L (methane sulfonate): To each sample was added 15 mL of the diluent. The mixture was subject to ultrasonic treatment for 2 min, and mixed homogeneously for use as the sample solution. NOTE: All the sample solutions were injected for analysis immediately after formulation. Once the HPLC system was stable, the sample was injected for analysis.
# [4] = system: A549 Transplant Model; assay: Analysis of tumor growth inhibition (TGI), A549 transplant model; format: in vivo; conditions: mice, QD
# Description: The development and growth of tumors are evaluated by the relation between the tumor volume and time. The long axis (L) and the short axis (W) are measured with caliper twice per week. The tumor volume (TV) is calculated in accordance with the formula of (L×W^2)/2. TGI is calculated from the difference between the median tumor volume of mice of the solvent group and the median tumor volume of mice of the administration group, and expressed as a percentage relative to the median tumor volume of the solvent group.
# It is calculated from the equation of: % TGH(Median Tumor Volume (Control Group) Median Tumor Volume (Administration Group))/Median Tumor Volume (Control Group))×100%
# The initial statistical analysis is carried out by repeated variance analyses. Next, multiple comparisons are made by Scheffe psot hoc test method. A solvent (aqueous solution containing 0.5% of methylcellulose and 0.2% Tween) alone is used as negative control.
# [5] = 40° C./75% RH, Day 5, sum of impurities > 0.02%
# [6] = 60° C., Day 5, sum of impurities > 0.02%
# [7] = 92.5% RH, Day 5, sum of impurities > 0.02%
# [8] = -20° C., Day 0 (control per se), Table 17
# [9] = -20° C., Day 0, sum of impurities > 0.02%
# [10] = FaSSIF (pH 6.48), listed as Hydrochloride Crystal form F
# [11] = Water (pH 6.33), listed as Hydrochloride Crystal form F
# [12] = FaSSIF (pH 6.48), listed as Methane sulfonate Crystal form K
# [13] = Water (pH 6.33), listed as Methane sulfonate Crystal form K
smiles,measurement,setting,value
COc1cc2nccc(Oc3ccc(NC(=S)NC4CC4)c(Cl)c3F)c2cc1C(N)=O [Crystal form A],Solubility (ug/mL)_24 hr,[1]; FaSSIF (pH 6.48),2.62 µg/mL
same,Solubility (ug/mL)_24 hr,"[1]; SGF (pH 1.72), methane sulfonate loaded to 10 mg/mL of free base",692.77 µg/mL
same,Solubility (ug/mL)_24 hr,[1]; Water (pH 6.33),2.38 µg/mL
same,pH (24 hr),[1]; FaSSIF (pH 6.48),6.18
same,pH (24 hr),[1]; FeSSIF (pH 4.89),4.98
same,pH (24 hr),[1]; SGF (pH 1.72),1.97
same,pH (24 hr),[1]; Water (pH 6.33),7.16
COc1cc2nccc(Oc3ccc(NC(=S)NC4CC4)c(Cl)c3F)c2cc1C(N)=O [Crystal form F],solubility at 24 h,[2],70.1 µg/mL
same,Content (%),"[3]; 40° C./75% RH, Day 5, Table 17",100.5%
same,Total impurity (%),[3]; [5],4.94%
same,Content (%),"[3]; 60° C., Day 5, Table 17",99.6%
same,Total impurity (%),[3]; [6],4.86%
same,Content (%),"[3]; 92.5% RH, Day 5, Table 17",100.3%
same,Total impurity (%),[3]; [7],4.52%
same,Content (%),[3]; [8],100.0%
same,Total impurity (%),[3]; [9],4.66%
same,Solubility (ug/mL)_24 hr,[1]; [10],64.32 µg/mL
same,Solubility (ug/mL)_24 hr,"[1]; SGF (pH 1.72), methane sulfonate loaded to 10 mg/mL of free base, listed as Hydrochloride Crystal form F",1217.07 µg/mL
same,Solubility (ug/mL)_24 hr,[1]; [11],319.05 µg/mL
same,pH (24 hr),[1]; [10],3.73
same,pH (24 hr),"[1]; FeSSIF (pH 4.89), listed as Hydrochloride Crystal form F",4.89
same,pH (24 hr),"[1]; SGF (pH 1.72), listed as Hydrochloride Crystal form F",1.80
same,pH (24 hr),[1]; [11],2.56
COc1cc2nccc(Oc3ccc(NC(=S)NC4CC4)c(Cl)c3F)c2cc1C(N)=O [Crystal form K],Content (%),"[3]; 40° C./75% RH, Day 5, Table 17",98.5%
same,Total impurity (%),[3]; [5],5.32%
same,Content (%),"[3]; 40° C./75% RH, Day 10, Table 17",101.7%
same,Total impurity (%),"[3]; 40° C./75% RH, Day 10, sum of impurities > 0.02%",5.62%
same,Content (%),"[3]; 60° C., Day 5, Table 17",94.6%
same,Total impurity (%),[3]; [6],9.33%
same,Content (%),"[3]; 60° C., Day 10, Table 17",93.9%
same,Total impurity (%),"[3]; 60° C., Day 10, sum of impurities > 0.02%",8.94%
same,Content (%),"[3]; 92.5% RH, Day 5, Table 17",99.3%
same,Total impurity (%),[3]; [7],5.16%
same,Content (%),"[3]; 92.5% RH, Day 10, Table 17",99.5%
same,Total impurity (%),"[3]; 92.5% RH, Day 10, sum of impurities > 0.02%",4.87%
same,Content (%),[3]; [8],100.0%
same,Total impurity (%),[3]; [9],5.20%
same,Solubility (ug/mL)_24 hr,[1]; [12],38.04 µg/mL
same,Solubility (ug/mL)_24 hr,"[1]; SGF (pH 1.72), methane sulfonate loaded to 10 mg/mL of free base, listed as Methane sulfonate Crystal form K",6601.59 µg/mL
same,Solubility (ug/mL)_24 hr,[1]; [13],329.78 µg/mL
same,pH (24 hr),[1]; [12],3.92
same,pH (24 hr),"[1]; FeSSIF (pH 4.89), listed as Methane sulfonate Crystal form K",4.88
same,pH (24 hr),"[1]; SGF (pH 1.72), listed as Methane sulfonate Crystal form K",1.76
same,pH (24 hr),[1]; [13],2.53
COc1cc2nccc(Oc3ccc(NC(=S)NC4CC4)c(Cl)c3F)c2cc1C(N)=O [Crystal form L],Content (%),"[3]; 40° C./75% RH, Day 30, Table 18",99.4%
same,Total impurity (%),"[3]; 40° C./75% RH, Day 30, sum of impurities > 0.05%",0.9%
same,Content (%),"[3]; 40° C./75% RH, Day 60, Table 18",99.9%
same,Total impurity (%),"[3]; 40° C./75% RH, Day 60, sum of impurities > 0.05%",0.9%
same,Content (%),"[3]; 40° C./75% RH, Day 90, Table 18",97.5%
same,Total impurity (%),"[3]; 40° C./75% RH, Day 90, sum of impurities > 0.05%",1.0%
same,Content (%),"[3]; 60° C., Day 5, Table 18",97.8%
same,Total impurity (%),"[3]; 60° C., Day 5, sum of impurities > 0.05%",0.8%
same,Content (%),"[3]; 60° C., Day 10, Table 18",97.4%
same,Total impurity (%),"[3]; 60° C., Day 10, sum of impurities > 0.05%",0.8%
same,Content (%),"[3]; 60° C., Day 30, Table 18",97.1%
same,Total impurity (%),"[3]; 60° C., Day 30, sum of impurities > 0.05%",0.8%
same,Content (%),"[3]; 92.5% RH, Day 5, Table 18",98.0%
same,Total impurity (%),"[3]; 92.5% RH, Day 5, sum of impurities > 0.05%",0.8%
same,Content (%),"[3]; 92.5% RH, Day 10, Table 18",97.6%
same,Total impurity (%),"[3]; 92.5% RH, Day 10, sum of impurities > 0.05%",0.8%
same,Content (%),"[3]; 92.5% RH, Day 30, Table 18",100.2%
same,Total impurity (%),"[3]; 92.5% RH, Day 30, sum of impurities > 0.05%",0.8%
same,Content (%),"[3]; -20° C., Day 0, Table 18",97.5%
same,Total impurity (%),"[3]; -20° C., Day 0, sum of impurities > 0.05%",0.8%
same,TGI % (Last Administration),[4]; 50 mg/kg,82%
same,TGI % (Last Administration),[4]; 100 mg/kg,90%
same,TGI % (Last Administration),[4]; 200 mg/kg,91%
COc1cc2nccc(Oc3ccc(NC(=S)NC4CC4)c(Cl)c3F)c2cc1C(N)=O [methane sulfonate],"Solubility, conclusion in words","[1]; SGF, listed as methanesulfonate salt",good solubility
